Measurements as given in US20070275923A1, “CATIONIC PEPTIDES FOR siRNA [sequence] [sequence]” (NASTECH PHARMACEUTICAL COMPANY INC., priority 2006, published 2007).
Non-standard residues stand in square brackets, D forms with d. Residues, ends and D or L forms follow the SMILES beside them. *: point of attachment. Propanoyl(3-maleimido) = O=C1C=CC(=O)N1CCC(=O)*; Mal = not defined here

Legend:
in vitro = details: C57BL/6J, mouse, mouse tail fibroblast (MTF) cells
Method: (§1) Mouse tail fibroblast (MTF) cells were derived from the tails of C57BL/6J mice. Tails were removed, immersed in 70% ethanol and then cut into small sections with a razor blade. The sections were washed three times with PBS and then incubated in a shaker at 37° C. with 0.5 mg/mL collagenase, 100 units/mL penicillin and 100 μg/mL streptomycin to disrupt tissue. Tail sections were then cultured in complete media (Dulbecco's Modified […] Medium with 20% FBS, 1 mM sodium pyruvate, nonessential amino acids and 100 units/mL penicillin and 100 μg/mL streptomycin) until cells were established. Cells were cultured at 37° C., 5% CO2 in complete media as outlined above.
(§2) Cells were be plated per well in a microtiter plate the day before transfection in complete media. The siRNA was be labeled, for example with a FAM, Alexa488, Alexa647 or Cy-5 conjugate. The cationic polymer peptide and siRNA were mixed in the microtiter plate complex with cells previously with OptiMEM. 7-AAD was added to each transfection to measure cell viability. Cells were transfected for three hours at 37° C., 5% CO2. The transfection mixture was removed and the cells were washed with TE buffer for about 10 minutes at 37° C., 5% CO2. Transfected cells were transferred to a V bottom plate and centrifuged. The TE buffer was removed and the transfected cells were resuspended in fluorescence activated cell sorting (FACS) buffer.
(§3) A non-transfection, siRNA alone, control was also performed. The peptide PN183 served herein as a positive cell-uptake control.
(§4) Cell-uptake is expressed as a percentage of the total cells with intracellular labeled siRNA. Cell Viability is also expressed as a percentage where 100% represents 100% viability. The MFI value is a relative value with a higher MFI value indicating a greater amount of labeled siRNA entered the cell. Within Table 3, “ND” means no data.

[1] = system: Mouse tail fibroblast (MTF) cells; assay: siRNA cell-uptake and MFI measured by FACS after peptide-mediated transfection of labeled siRNA; type: cell-based; details: for intracellular delivery of siRNA (verbal conclusion from cell-uptake and cell viability): conclusion drawn from Table 3; for % Cell-Uptake / MFI: 200 nM labeled siRNA; for % Cell-Uptake: % of total cells with intracellular labeled siRNA; for MFI: relative value, higher = more labeled siRNA entered the cell
Method: SiRNA cell uptake was measured by FACS.
For the instant example, cell-uptake, mean fluorescent intensity (MFI) and cell viability was measured for each peptide. siRNA cell-uptake was measured by the presence of intracellular labeled siRNA. The cell-uptake assay determined the percentage of cells that contain the labeled siRNA. Mean Fluorescence Intensity (MFI) was used to determine the relative mean quantity of labeled siRNA that entered the cells.
A non-transfection, siRNA alone, control was also performed.
Within Table 3, “ND” means no data.

[2] = system: Mouse tail fibroblast (MTF) cells; assay: in vitro; details: 200 nM siRNA, 100% represents 100% viability
Method: as §1, §2, §3, §4

Row | Compound | viability at 3 h, 1 µM (in vitro) | viability at 3 h, 10 µM (in vitro) | viability at 3 h, 100 µM (in vitro) | intracellular delivery of siRNA (verbal conclusion from cell-uptake and cell viability) [1] | % Cell-Uptake ([1]; peptide concentration 1 μM) | MFI ([1]; peptide concentration 1 μM) | % Cell-Uptake ([1]; peptide concentration 10 μM) | MFI ([1]; peptide concentration 10 μM) | % Cell-Uptake ([1]; peptide concentration 100 μM) | MFI ([1]; peptide concentration 100 μM) | % Cell Viability ([2]; peptide concentration 1 μM) | % Cell Viability ([2]; peptide concentration 10 μM) | % Cell Viability ([2]; peptide concentration 100 μM)
1 | N=C(N)NCCC[C@@H](N)C(=O)N[C@@H](CCCNC(=N)N)C(=O)N[C@H](CCCNC(=N)N)C(=O)N[C@@H](CCCNC(=N)N)C(=O)N[C@H](CCCNC(=N)N)C(=O)N[C@@H](CCCNC(=N)N)C(=O)N[C@H](CCCNC(=N)N)C(=O)N[C@@H](CCCNC(=N)N)C(=O)N[C@H](CCCNC(=N)N)C(=O)N[C@@H](CCCNC(=N)N)C(=O)N[C@H](CCCNC(=N)N)C(=O)N[C@@H](CCCNC(=N)N)C(=O)N[C@H](CCCNC(=N)N)C(=O)N[C@@H](CCCNC(=N)N)C(=O)N[C@H](CCCNC(=N)N)C(=O)N[C@@H](CCCNC(=N)N)C(=O)N[C@H](CCCNC(=N)N)C(=O)N[C@@H](CCCNC(=N)N)C(=O)N[C@H](CCCNC(=N)N)C(=O)N[C@@H](CCCNC(=N)N)C(N)=O [PN912, NH2-(Xaa-Arg)10-amide] (H-[dR]R[dR]R[dR]R[dR]R[dR]R[dR]R[dR]R[dR]R[dR]R[dR]R-NH2) | 96.9% | 96.1% | 90% | effective intracellular delivery of siRNA without negatively impacting cell viability | 61.2% | 4.32 | 73.3% | 4.72 | 86.2% | 5.41 | – | – | –
2 | CC[C@H](C)[C@H](NC(=O)[C@H](C)NC(=O)CNC(=O)[C@H](Cc1ccccc1)NC(=O)[C@@H](NC(=O)[C@H](CCC(=O)O)NC(=O)[C@H](CC(N)=O)NC(=O)CNC(=O)[C@H](Cc1c[nH]c2ccccc12)NC(=O)[C@H](CCC(=O)O)NC(=O)CNC(=O)[C@H](CCSC)NC(=O)[C@@H](NC(=O)[C@H](CC(=O)O)NC(=O)[C@@H]1CCCN1C(=O)[C@H](CCC(N)=O)NC(=O)[C@H](CO)NC(=O)[C@H](CCCCN)NC(=O)[C@H](CCCCN)NC(=O)[C@H](CCCCN)NC(=O)[C@H](CCCCN)NC(=O)[C@H](CCCCN)NC(=O)[C@H](CCCCN)NC(=O)[C@H](CCCCN)NC(=O)[C@H](CCCCN)NC(=O)CCN1C(=O)C=CC1=O)[C@@H](C)CC)[C@@H](C)CC)C(=O)N[C@@H](C)C(=O)NCC(=O)N[C@@H](Cc1ccccc1)C(=O)N[C@@H](CC(C)C)C(=O)NCC(N)=O [PN947] ({Propanoyl(3-maleimido)}-KKKKKKKKSQPDIMGEWGNEIFGAIAGFLG-NH2; N-terminus assumed) | 98.7% | 97.9% | 99.3% | – | 2.8% | 1.23 | 12.3% | 1.44 | 49.5% | 4.6 | – | – | –
3 | PEG (2 KDa)-Mal-(Lys)10-amide ({PEG 2 kDa-Mal}-KKKKKKKKKK-NH2; reading uncertain; also: printed as PEG (2 KDa)-Mal-(Lys)10-amide) [PN933] | – | – | – | – | 0.3% | – | 0.5% | – | 0.2% | – | 97.7% | 98% | 98%
4 | PEG (2 KDa)-Mal-(Lys)15-amide ({PEG 2 kDa-Mal}-KKKKKKKKKKKKKKK-NH2; reading uncertain; also: printed as PEG (2 KDa)-Mal-(Lys)15-amide) [PN930] | – | – | – | – | 0.2% | – | 1.5% | – | 0.8% | – | 97.9% | 97.2% | 97.8%
5 | PEG (2 KDa)-Mal-(Lys)20-amide ({PEG 2 kDa-Mal}-KKKKKKKKKKKKKKKKKKKK-NH2; reading uncertain) [PN926] | – | – | – | – | 0.9% | – | 1.4% | – | 1.2% | – | 97.9% | 98.3% | 98.3%
6 | PEG (2 KDa)-Mal-(Lys)25-amide [PN925] | – | – | – | – | 5.2% | – | 2.9% | – | 2.2% | – | 96.6% | 97.8% | 95.8%
7 | PEG (2 KDa)-Mal-(Lys-His)10-amide ({PEG 2 kDa-Mal}-KHKHKHKHKHKHKHKHKHKH-NH2; reading uncertain) [PN939] | – | – | – | effective intracellular delivery of siRNA without negatively impacting cell viability | 66% | 3.3 | 97% | 35.1 | 97.3% | 3.33 | 98.6% | 99.7% | 99.1%
8 | PEG (2 KDa)-Mal-(Lys-His)15-amide ({PEG 2 kDa-Mal}-KHKHKHKHKHKHKHKHKHKHKHKHKHKHKH-NH2; reading uncertain) [PN936] | – | – | – | effective intracellular delivery of siRNA without negatively impacting cell viability | 37.7% | 2.66 | 55.3% | 5.86 | 25.9% | – | 97.5% | 98.1% | 28.7%
9 | PEG (10 KDa)-Mal-(Lys)10-amide ({PEG 10 kDa-Mal}-KKKKKKKKKK-NH2; reading uncertain; also: printed as PEG (10 KDa)-Mal-(Lys)10-amide) [PN934] | – | – | – | – | 0.2% | – | 1.1% | – | 0.3% | – | 98.3% | 96.2% | 97.4%
10 | PEG (10 KDa)-Mal-(Lys)15-amide ({PEG 10 kDa-Mal}-KKKKKKKKKKKKKKK-NH2; reading uncertain; also: printed as PEG (10 KDa)-Mal-(Lys)15-amide) [PN931] | – | – | – | – | 0.6% | – | 0.7% | – | 0.5% | – | 97% | 97.7% | 98.4%
11 | PEG (10 KDa)-Mal-(Lys)20-amide ({PEG 10 kDa-Mal}-KKKKKKKKKKKKKKKKKKKK-NH2; reading uncertain) [PN928] | – | – | – | – | 3.9% | – | 2.3% | – | 3.2% | – | 97.3% | 98% | 98.2%
12 | PEG (10 KDa)-Mal-(Lys)25-amide [PN927] | – | – | – | – | 1.6% | – | 0.8% | – | 0.7% | – | 95.6% | 97% | 97.3%
13 | PEG (10 KDa)-Mal-(Lys-His)10-amide ({PEG 10 kDa-Mal}-KHKHKHKHKHKHKHKHKHKH-NH2; reading uncertain) [PN940] | – | – | – | effective intracellular delivery of siRNA without negatively impacting cell viability | 69.9% | 4.81 | 70.6% | 2.54 | – | – | 99.1% | 98.4% | –
14 | PEG (10 KDa)-Mal-(Lys-His)15-amide ({PEG 10 kDa-Mal}-KHKHKHKHKHKHKHKHKHKHKHKHKHKHKH-NH2; reading uncertain) [PN937] | – | – | – | effective intracellular delivery of siRNA without negatively impacting cell viability | 54.7% | 3.18 | 92.6% | 6.41 | – | – | 99% | 99.4% | –
15 | PEG (10 KDa)-Mal-Trp-(Lys)30-amide (WKKKKKKKKKKKKKKKKKKKKKKKKKKKKKK; PEG 10 kDa maleimide; C-terminal amide) [PN986] | – | – | – | – | 0.6% | – | 0.8% | – | 2.5% | – | 97.4% | 97.2% | 93.6%
